Laboratory results taken from publication PMC10916382, “Repurposing screen identifies novel candidates for broad-spectrum coronavirus antivirals and druggable host targets” (Antimicrobial Agents and Chemotherapy, 2024).
Where two headings read alike, the source gives them in different places.

How the values were obtained:
HCoV-229E [1] = experiment: microbe, parasite or virus in culture; assay type: cell-based, Homo sapiens sapiens
SARS-CoV-2 [2] = assay type: cell-based; details: dose range 0.15 µM to 10 µM, viral genome copies in apical washes and cellular lysates
Huh-7.5/F-Luc cells = details: for CC50 (µM): Huh-7.5 cells, dose series, maximum tested dose 5 µM; for % cell viability at max. dose [5 µM]: at max. dose 5 µM
SARS-CoV-2 [3] = details: for SI (CC50/IC50): CC50 from LDH assay / IC50 from qRT-PCR
SARS-CoV-2 [4] = details: Calu-3 cells; for total cell numbers / reduction of infected cell numbers: 5 µM, relative to DMSO; for total cell numbers: DAPI; for reduction of infected cell numbers: N protein immunofluorescence
Calu-3 cells = details: LDH release, non-infected Calu-3 cells, 48 hours of drug treatment
[5] = system: primary human airway epithelial cells; details: dose range 0.15 µM to 10 µM, cellular lysates
SARS-CoV-2 [6] = details: Calu-3 and Vero cells; cited from earlier work
HCoV-229E [7] = system: HCoV-229E; design: method as in PMID 34446714; details: Huh-7.5 cells; cited from earlier work
HCoV-229E [8] = experiment: Twelve-step dose titration against HCoV-229E infection on Huh-7.5/F-Luc/Cas9 cells; assay type: cell-based, Homo sapiens sapiens; details: n = 3
Huh-7.5/F-Luc/Cas9 cells = details: twelve-step 1:3 dilutions, n = 3
in vitro = details: human

For `C#CCOc1ccc2c(c1)c(-c1ccc(C(C)C)cc1)nc(=O)n2Cc1ccc(Br)cc1` [AXT-914, reference compound], the IC50 (HCoV-229E [1]; HCoV 229E infection, dose series, max. dose 5 µM, read-out: IC50) was 0.05 µM, the “antiviral activity against SARS-CoV-2 in HAE cells” value (SARS-CoV-2 [2]) was “dose dependently inhibited SARS-CoV-2 infection” and the “CC50 (µM)” value (Huh-7.5/F-Luc cells) was “greater than maximum tested dose”. The “% cell viability at max. dose [5 µM]” value (Huh-7.5/F-Luc cells) was 127.46%, the IC50 (SARS-CoV-2 [3]) was 5.65 µM and the IC90 (SARS-CoV-2 [3]) was 21.8 µM. For the same compound, the “SI (CC50/IC50)” value (SARS-CoV-2 [3]; Calu-3 cells) was greater than 7.08, the “Anti-SARS-CoV-2 screening on Calu-3 cells: viability [% of control]” value (SARS-CoV-2 [4]) was 76.99 % of control and the total cell numbers (SARS-CoV-2 [4]) was no less than 75%. For the same compound, the “reduction of infected cell numbers” value (SARS-CoV-2 [4]) was “more than 50%”, the “Anti-SARS-CoV-2 screening on Calu-3 cells: intracellular SARS-CoV-2 infection measured via immunofluorescence imaging [% of control]” value (SARS-CoV-2 [4]) was 20.74 % of control and the CC50 (Calu-3 cells) was greater than 40 µM. The “cytotoxicity in HAE cells, GAPDH mRNA” value [5] was “without reducing GAPDH mRNA levels”.
For `Cc1ccccc1N=Nc1ccc(NC(=O)c2ccnn2C)c(C)c1` [CH223191], the “effect on SARS-CoV-2 infection” value (SARS-CoV-2 [6]) is given as “decreased HCoV-229E and SARS-CoV-2 infection” and the “effect on HCoV-229E infection” value (HCoV-229E [7]) is given as “decreased HCoV-229E and SARS-CoV-2 infection”.
For `Cc1cc(-c2nc3cc(F)ccc3s2)ccc1NC(=O)[C@@H](N)CCCCN` [Phortress, reference compound], the IC50 (HCoV-229E [1]; Huh-7.5/F-Luc cells, 8-step dose series, 48 hours at 33°C, read-out: IC50 against HCoV-229E) was 0.23 µM, the “antiviral activity against SARS-CoV-2 in HAE cells” value (SARS-CoV-2 [2]) was “dose dependently inhibited SARS-CoV-2 infection” and the “CC50 (µM)” value (Huh-7.5/F-Luc cells) was “greater than maximum tested dose”. The “% cell viability at max. dose [5 µM]” value (Huh-7.5/F-Luc cells) was 252.77%, the “SI (CC50/IC50)” value (SARS-CoV-2 [3]; Calu-3 cells) was 1.49 and the IC90 (SARS-CoV-2 [3]; Calu-3 cells, viral genome copies in supernatant 48 hours post-infection) was 164 µM. For the same compound, the IC50 (SARS-CoV-2 [3]; Calu-3 cells, viral genome copies in supernatant 48 hours post-infection, n = 3) was 13.3 µM, the “Anti-SARS-CoV-2 screening on Calu-3 cells: viability [% of control]” value (SARS-CoV-2 [4]) was 106.32 % of control and the total cell numbers (SARS-CoV-2 [4]) was no less than 75%. The “reduction of infected cell numbers” value (SARS-CoV-2 [4]) was “more than 50%”, the “Anti-SARS-CoV-2 screening on Calu-3 cells: intracellular SARS-CoV-2 infection measured via immunofluorescence imaging [% of control]” value (SARS-CoV-2 [4]) was 46.05 % of control and the CC50 (Calu-3 cells) was 19.9 µM. The “cytotoxicity in HAE cells, GAPDH mRNA” value [5] was “without reducing GAPDH mRNA levels”.
Work on `F/C(COc1ccc2c(c1)[nH]c1ccccc12)=C1/CN2CCC1CC2` [YM-53601] yielded an IC50 (HCoV-229E [8]; twelve-step 1:3 dilutions) of 1.61 µM and a CC50 (Huh-7.5/F-Luc/Cas9 cells) of 28.1 µM.
With `C=C(CC[C@]12O[C@H](C(=O)O)[C@@](O)(C(=O)O)[C@](C(=O)O)(O1)[C@H](OC(=O)/C=C/[C@@H](C)C[C@@H](C)CC)[C@H]2O)[C@@H](OC(C)=O)[C@H](C)Cc1ccccc1` [Zaragozic Acid A, Zaragozic acid A] the IC50 (HCoV-229E [8]; Human coronavirus 229E, Huh7.5, twelve-step 1:3 dilutions) was 1.93 µM and the CC50 (in vitro) was greater than 100 µM.
